Source: patent US9139485B2, “Plant treatment agent” (UNIVERSITI PUTRA MALAYSIA, priority 2011, dated 2015)
Marks after values point to notes of the source that are not given here.

What was measured:
[1] = test system: Hybrid no. 5 variety (Zea mays L.); assay: Greenhouse pot experiment: dry weight, N, P, K uptake and use efficiency of maize plant; type: in vivo; conditions: 56 days after planting
Protocol: A pot experiment was conducted in a greenhouse of Universiti Putra Malaysia Bintulu Sarawak Campus, Malaysia using randomized complete block design (RCBD) with three replications. Each pot size was 22×28 cm. Each was filled with 10 kg soil (based on bulk density of the soil). Hybrid no. 5 variety (Zea mays L.) was used as the test crop. Its N, P, and K requirement were 60 kg N, 60 kg P2O5 and 40 kg K2O (130 kg ha^−1 urea: 130 kg ha^−1 TSP: 67 kg ha^−1 KCl). The fertilizer requirement was scaled down to per pot basis equivalent to 2.02 g of urea, […]. The volume of water used for each pot was based on field capacity (70%). The three treatments devised for this experiment were as follows: • i. No fertilizer (T0) • ii. 2.02 g urea (T1) • iii. 2.02 g urea+7 L peat soil water (T2)
All treatments were applied on the 10th day after planting (DAP). However TSP and KCl which were common to all the treatments were applied on 10 DAP and 28 DAP. The plants were monitored until tassel stage. Tassel stage is the maximum growth stage for plants before they enter productive stage.
Harvesting was done on the 56th DAP. The whole plant including leaves and stem were harvested. The remaining roots in the soil were removed carefully. They were cleaned using tap and distilled water. The plant parts (leaves, stem and roots) were then oven-dried at 60° C. until constant weight was attained afterwhich they weighed using a digital balance. Soil samples were also taken from the pots, air-dried, pounded and sieved to a pass 2 mm before they were analyzed for pH, exchangeable cations (K, Mg, and Ca), total carbon, total N, available P, exchangeable ammonium and available nitrate, using standard procedures. Each plants part was ground and analyzed for total K, Mg, Ca, Na, N, and P.
Nitrogen, P and K uptake in leaves, stem and roots were determined by multiplying the concentration with the dry weight of the plant parts. Nitrogen, P and K use efficiency were determined by the formula of Pomares-Gracia and Pratt (1987).
Analysis of variance (ANOVA) was used to test the effect of treatments while means of treatments were compared using Duncan's Test. Statistical Analysis System (SAS Ver. 9.2) was used for the statistical analysis.

[2] = Selected chemical properties of peat soil water and urea; type: physicochemical; conditions: glass electrode
Protocol: Peat soil water (waste water) was collected from natural flows of peat water at Suai Miri Sarawak, Malaysia. The mineral soil used was Bekenu Series (Fine loamy, siliceous, isohyperthermic, red-yellow to yellow Tipik Tualemkuts). It was sampled in an undisturbed area of Universiti Putra Malaysia Bintulu Sarawak Campus, Malaysia using an auger. The soil taken at 0-15 cm depth was air dried and ground to pass 2.0 mm sieve for laboratory experiment. The soil texture was determined using the hydrometer method (Bouyoucos, 1962) and its field capacity and bulk density determined by the method described by Tan (2005). The pH of the soil was determined in a 1:2 soil:distilled water suspension and KCl using a glass electrode. However, the pH of the peat soil water was determined directly from filtered samples using a glass electrode. The soil total carbon, N and organic matter were determined using LECO CHNS Analyzer (Leco Truspec Micro Elemental Analyzer CHNS, New York). Soil available P was extracted using the double acid method (Tan, 2005) followed by blue method (Murphy and Riley, 1962). The Kjedhal method was used to determine total N. Exchangeable cations were extracted using leaching method and their concentrations were afterwards determined using followed Atomic Absorption Spectrometry (AAS). Soil CEC was determined by the leaching method followed by steam distillation.

pHw ([2]; listed as Urea): 8.00
pHw ([2]; listed as urea): basic
SMILES: NC(N)=O [Treatment T1, urea]
dry weight of maize plant, Leaves [1]: 6.00^b g plant^−1
dry weight of maize plant, Roots [1]: 3.18^b g plant^−1
dry weight of maize plant, Stems [1]: 5.71^d g plant^−1
dry weight of maize plant, Total [1]: 14.89^b g plant^−1
K use efficiency of maize plant ([1]; Leaves): 1.17^a %
N use efficiency of maize plant ([1]; Leaves): 1.26^a %
P use efficiency of maize plant ([1]; Leaves): 0.31^a %
K use efficiency of maize plant ([1]; Roots): 1.75^a %
N use efficiency of maize plant ([1]; Roots): 0.37^a %
P use efficiency of maize plant ([1]; Roots): 0.40^a %
K use efficiency of maize plant ([1]; Stem): 2.17^a %
N use efficiency of maize plant ([1]; Stem): 0.24^d %
P use efficiency of maize plant ([1]; Stem): 0.32^a %
K use efficiency of maize plant ([1]; Total): 5.09^a %
N use efficiency of maize plant ([1]; Total): 1.87^a %
P use efficiency of maize plant ([1]; Total): 1.03^a %
